Data taken from ChEMBL document CHEMBL3885881, “DrugMatrix”.

Species: Rattus norvegicus
Assay: DrugMatrix - Regimen: Daily Repeat
Type: toxicity, organism-based, Sprague-Dawley
Design: regimen Daily Repeat, gender Male, age 6-8 weeks
Conditions: in vivo, po, route oral GAVAGE, […]; for ABSOLUTE BASOPHIL / ABSOLUTE EOSINOPHIL / ABSOLUTE LYMPHOCYTE / ABSOLUTE MONOCYTE / ABSOLUTE SEGMENTED NEUTROPHIL / BASOPHIL / EOSINOPHIL / ERYTHROCYTE COUNT / HEMATOCRIT / HEMOGLOBIN / LEUKOCYTE COUNT / LYMPHOCYTE / MEAN CORPUSCULAR HEMOGLOBIN / MEAN CORPUSCULAR HEMOGLOBIN CONCENTRATION / MEAN CORPUSCULAR VOLUME / MONOCYTE / NEUTROPHIL / NUCLEATED RED BLOOD CELLS / PLATELET COUNT: tissue Blood; for ALANINE AMINOTRANSFERASE / ALBUMIN / ALKALINE PHOSPHATASE / ASPARTATE AMINOTRANSFERASE / BLOOD UREA NITROGEN / CARBON DIOXIDE / CHLORIDE / CHOLESTEROL / CREATINE PHOSPHOKINASE / CREATININE / GLUCOSE / LACTATE DEHYDROGENASE / LIPASE / PHOSPHORUS / POTASSIUM / SODIUM / TOTAL BILIRUBIN / TOTAL PROTEIN / URIC ACID: tissue Plasma
[1] = 50 mg/kg, 120 h, dose level Low, time 5 day
[2] = 714 mg/kg, 72 h, dose level High, time 3 day
[3] = 714 mg/kg, 120 h, dose level High, time 5 day

Structure (SMILES): COC(=O)Nc1nc2ccc(C(=O)c3ccccc3)cc2[nH]1 [MEBENDAZOLE]
- ABSOLUTE BASOPHIL [1]: 0 CELLS/uL
- ABSOLUTE EOSINOPHIL [1]: 0 CELLS/uL
- ABSOLUTE LYMPHOCYTE [1]: 6435.67 CELLS/uL
- ABSOLUTE MONOCYTE [1]: 130 CELLS/uL
- ABSOLUTE SEGMENTED NEUTROPHIL [1]: 501 CELLS/uL
- BASOPHIL [1]: 0%
- EOSINOPHIL [1]: 0%
- ERYTHROCYTE COUNT [1]: 5.5 x10E6/uL
- HEMATOCRIT [1]: 34.07%
- HEMOGLOBIN [1]: 13.2 G/DL
- LEUKOCYTE COUNT [1]: 7.07 x10E3/uL
- LYMPHOCYTE [1]: 91.33%
- MEAN CORPUSCULAR HEMOGLOBIN [1]: 23.93 pg
- MEAN CORPUSCULAR HEMOGLOBIN CONCENTRATION [1]: 38.77 G/DL
- MEAN CORPUSCULAR VOLUME [1]: 61.9 fL
- MONOCYTE [1]: 1.67%
- NEUTROPHIL [1]: 7%
- NUCLEATED RED BLOOD CELLS [1]: 0 /100WBC
- PLATELET COUNT [1]: 727.67 x10E3/uL
- ALANINE AMINOTRANSFERASE [1]: 57.67 u/L
- ALBUMIN [1]: 4.23 G/DL
- ALKALINE PHOSPHATASE [1]: 399 u/L
- ASPARTATE AMINOTRANSFERASE [1]: 84.33 u/L
- BLOOD UREA NITROGEN [1]: 13 mg/dL
- CARBON DIOXIDE [1]: 30.67 mmol/L
- CHLORIDE [1]: 101.67 MEQ/L
- CHOLESTEROL [1]: 64.67 mg/dL
- CREATINE PHOSPHOKINASE [1]: 244 u/L
- CREATININE [1]: 0.17 mg/dL
- GLUCOSE [1]: 149 mg/dL
- LACTATE DEHYDROGENASE [1]: 129.33 u/L
- LIPASE [1]: 9.33 u/L
- PHOSPHORUS [1]: 9.77 mg/dL
- POTASSIUM [1]: 5.24 MEQ/L
- SODIUM [1]: 144.5 MEQ/L
- TOTAL BILIRUBIN [1]: 0.17 mg/dL
- TOTAL PROTEIN [1]: 6.13 G/DL
- URIC ACID [1]: 0.83 mg/dL
- ABSOLUTE BASOPHIL [2]: 0 CELLS/uL
- ABSOLUTE EOSINOPHIL [2]: 0 CELLS/uL
- ABSOLUTE LYMPHOCYTE [2]: 11722 CELLS/uL
- ABSOLUTE MONOCYTE [2]: 64.67 CELLS/uL
- ABSOLUTE SEGMENTED NEUTROPHIL [2]: 713.33 CELLS/uL
- BASOPHIL [2]: 0%
- EOSINOPHIL [2]: 0%
- ERYTHROCYTE COUNT [2]: 5.73 x10E6/uL
- HEMATOCRIT [2]: 36.47%
- HEMOGLOBIN [2]: 14.03 G/DL
- LEUKOCYTE COUNT [2]: 12.5 x10E3/uL
- LYMPHOCYTE [2]: 93%
- MEAN CORPUSCULAR HEMOGLOBIN [2]: 24.53 pg
- MEAN CORPUSCULAR HEMOGLOBIN CONCENTRATION [2]: 38.5 G/DL
- MEAN CORPUSCULAR VOLUME [2]: 63.63 fL
- MONOCYTE [2]: 0.67%
- NEUTROPHIL [2]: 6.33%
- NUCLEATED RED BLOOD CELLS [2]: 0 /100WBC
- PLATELET COUNT [2]: 1226.67 x10E3/uL
- ALANINE AMINOTRANSFERASE [2]: 73 u/L
- ALBUMIN [2]: 4.17 G/DL
- ALKALINE PHOSPHATASE [2]: 458.33 u/L
- ASPARTATE AMINOTRANSFERASE [2]: 86.67 u/L
- BLOOD UREA NITROGEN [2]: 12.33 mg/dL
- CARBON DIOXIDE [2]: 34.33 mmol/L
- CHLORIDE [2]: 99 MEQ/L
- CHOLESTEROL [2]: 68 mg/dL
- CREATINE PHOSPHOKINASE [2]: 464 u/L
- CREATININE [2]: 0.15 mg/dL
- GLUCOSE [2]: 137.67 mg/dL
- LACTATE DEHYDROGENASE [2]: 159.67 u/L
- LIPASE [2]: 10 u/L
- PHOSPHORUS [2]: 11.13 mg/dL
- POTASSIUM [2]: 6.13 MEQ/L
- SODIUM [2]: 144.4 MEQ/L
- TOTAL BILIRUBIN [2]: 0.2 mg/dL
- TOTAL PROTEIN [2]: 6.07 G/DL
- URIC ACID [2]: 0.6 mg/dL
- ABSOLUTE BASOPHIL [3]: 0 CELLS/uL
- ABSOLUTE EOSINOPHIL [3]: 0 CELLS/uL
- ABSOLUTE LYMPHOCYTE [3]: 8770.67 CELLS/uL
- ABSOLUTE MONOCYTE [3]: 141.33 CELLS/uL
- ABSOLUTE SEGMENTED NEUTROPHIL [3]: 488 CELLS/uL
- BASOPHIL [3]: 0%
- EOSINOPHIL [3]: 0%
- ERYTHROCYTE COUNT [3]: 5.57 x10E6/uL
- HEMATOCRIT [3]: 35.9%
- HEMOGLOBIN [3]: 13.67 G/DL
- LEUKOCYTE COUNT [3]: 9.4 x10E3/uL
- LYMPHOCYTE [3]: 93%
- MEAN CORPUSCULAR HEMOGLOBIN [3]: 24.57 pg
- MEAN CORPUSCULAR HEMOGLOBIN CONCENTRATION [3]: 38.1 G/DL
- MEAN CORPUSCULAR VOLUME [3]: 64.5 fL
- MONOCYTE [3]: 1.67%
- NEUTROPHIL [3]: 5.33%
- NUCLEATED RED BLOOD CELLS [3]: 0.33 /100WBC
- PLATELET COUNT [3]: 1199 x10E3/uL
- ALANINE AMINOTRANSFERASE [3]: 60.67 u/L
- ALBUMIN [3]: 4.1 G/DL
- ALKALINE PHOSPHATASE [3]: 481.33 u/L
- ASPARTATE AMINOTRANSFERASE [3]: 90.67 u/L
- BLOOD UREA NITROGEN [3]: 14 mg/dL
- CARBON DIOXIDE [3]: 32.67 mmol/L
- CHLORIDE [3]: 99.67 MEQ/L
- CHOLESTEROL [3]: 65 mg/dL
- CREATINE PHOSPHOKINASE [3]: 401 u/L
- CREATININE [3]: 0.21 mg/dL
- GLUCOSE [3]: 145.33 mg/dL
- LACTATE DEHYDROGENASE [3]: 142.67 u/L
- LIPASE [3]: 11.67 u/L
- PHOSPHORUS [3]: 10.2 mg/dL
- POTASSIUM [3]: 5.58 MEQ/L
- SODIUM [3]: 146.1 MEQ/L
- TOTAL BILIRUBIN [3]: 0.2 mg/dL
- TOTAL PROTEIN [3]: 5.97 G/DL
- URIC ACID [3]: 0.5 mg/dL
